In the supplement of paper PMC10883282:
Where a name gives a salt, the structure may show the parent alone.

Assays:
Assay in all cases: relative viability vs DMSO control (72 h) (fraction); higher = more viable cells
[1] = test system: MES-SA
In short: (§1)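 Sarcoma cell lines went into 384-well plates at densities chosen to reach 80–90% confluence. After 24 h, each well received 2.5 µl of serially diluted compound, with source plates running from 10 mM to 0.0002 mM, and the plates were kept 72 h at 37 °C, 5% CO2, alongside 0.1% DMSO vehicle and a 5 µM positive control. Relative viability was derived from ATPLite readings as percent growth and averaged over up to triplicate wells. The data were then rescaled so that 1 stands for full and 0 for none.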

[2] = test system: SK-LMS-1
In short: as §1

[3] = test system: SK-ES-1
In short: as §1

[4] = test system: SYO-1
In short: as §1

[5] = test system: SW1353
In short: as §1

[6] = test system: RD-ES
In short: as §1

[7] = test system: VA-ES-BJ
In short: as §1

[8] = test system: HT1080
In short: as §1

[9] = test system: RD
In short: as §1

[10] = test system: KHOS-240S
In short: as §1

[11] = test system: SW982
In short: as §1

[12] = test system: G401
In short: as §1

Cn1cc(C2=C(c3cn(C4CCN(Cc5ccccn5)CC4)c4ccccc34)C(=O)NC2=O)c2ccccc21 [Enzastaurin]
Settings	relative viability
[1], 0.00017 µM	1.01
[1], 0.00051 µM	0.997
[1], 0.00152 µM	0.994
[1], 0.00457 µM	0.99
[1], 0.01372 µM	0.959
[1], 0.04115 µM	1.003
[1], 0.1235 µM	0.942
[1], 0.3704 µM	0.97
[1], 1.111 µM	0.952
[1], 3.333 µM	0.964
[1], 10 µM	0.659
[2], 0.00017 µM	1.08
[2], 0.00051 µM	1.07
[2], 0.00152 µM	1.07
[2], 0.00457 µM	1.04
[2], 0.01372 µM	1.047
[2], 0.04115 µM	1.071
[2], 0.1235 µM	1.05
[2], 0.3704 µM	1.06
[2], 1.111 µM	0.9757
[2], 3.333 µM	0.841
[2], 10 µM	0.746
[3], 0.00017 µM	1.09
[3], 0.00051 µM	1.06
[3], 0.00152 µM	1.11
[3], 0.00457 µM	1.08
[3], 0.01372 µM	1.11
[3], 0.04115 µM	1.08
[3], 0.1235 µM	1.08
[3], 0.3704 µM	1.04
[3], 1.111 µM	1.11
[3], 3.333 µM	1.1
[3], 10 µM	0.914
[4], 0.00017 µM	1.04
[4], 0.00051 µM	1.016
[4], 0.00152 µM	0.999
[4], 0.00457 µM	0.9983
[4], 0.01372 µM	0.971
[4], 0.04115 µM	0.989
[4], 0.1235 µM	0.959
[4], 0.3704 µM	0.983
[4], 1.111 µM	1.01
[4], 3.333 µM	0.96
[4], 10 µM	0.929
[5], 0.00017 µM	1.1
[5], 0.00051 µM	1.09
[5], 0.00152 µM	1.104
[5], 0.00457 µM	1.1
[5], 0.01372 µM	1.08
[5], 0.04115 µM	1.09
[5], 0.1235 µM	1.07
[5], 0.3704 µM	1.04
[5], 1.111 µM	0.949
[5], 3.333 µM	0.857
[5], 10 µM	0.809
[6], 0.00017 µM	0.992
[6], 0.00051 µM	0.997
[6], 0.00152 µM	1
[6], 0.00457 µM	1.01
[6], 0.01372 µM	0.996
[6], 0.04115 µM	1.01
[6], 0.1235 µM	1.01
[6], 0.3704 µM	0.981
[6], 1.111 µM	1.02
[6], 3.333 µM	1.02
[6], 10 µM	1.04
[7], 0.00017 µM	1.08
[7], 0.00051 µM	1.12
[7], 0.00152 µM	1.11
[7], 0.00457 µM	1.09
[7], 0.01372 µM	1.07
[7], 0.04115 µM	1.06
[7], 0.1235 µM	1.06
[7], 0.3704 µM	1.08
[7], 1.111 µM	1.11
[7], 3.333 µM	1.19
[7], 10 µM	1.21
[8], 0.00017 µM	1.14
[8], 0.00051 µM	1.14
[8], 0.00152 µM	1.11
[8], 0.00457 µM	1.11
[8], 0.01372 µM	1.12
[8], 0.04115 µM	1.14
[8], 0.1235 µM	1.14
[8], 0.3704 µM	1.11
[8], 1.111 µM	1.15
[8], 3.333 µM	1.37
[8], 10 µM	1.365
[9], 0.00017 µM	1.08
[9], 0.00051 µM	1.07
[9], 0.00152 µM	1.08
[9], 0.00457 µM	1.1
[9], 0.01372 µM	1.1
[9], 0.04115 µM	1.09
[9], 0.1235 µM	1.1
[9], 0.3704 µM	1.1
[9], 1.111 µM	1.12
[9], 3.333 µM	1.1
[9], 10 µM	0.978
[10], 0.00017 µM	1.06
[10], 0.00051 µM	1.1
[10], 0.00152 µM	1.08
[10], 0.00457 µM	1.09
[10], 0.01372 µM	1.1
[10], 0.04115 µM	1.09
[10], 0.1235 µM	1.07
[10], 0.3704 µM	1.08
[10], 1.111 µM	1.08
[10], 3.333 µM	1.01
[10], 10 µM	0.732
[11], 0.00017 µM	1.06
[11], 0.00051 µM	1.06
[11], 0.00152 µM	1.08
[11], 0.00457 µM	1.08
[11], 0.01372 µM	1.08
[11], 0.04115 µM	1.069
[11], 0.1235 µM	1.05
[11], 0.3704 µM	1.06
[11], 1.111 µM	1.012
[11], 3.333 µM	0.903
[11], 10 µM	0.679
[12], 0.00017 µM	1.08
[12], 0.00051 µM	1.1
[12], 0.00152 µM	1.07
[12], 0.00457 µM	1.04
[12], 0.01372 µM	1.05
[12], 0.04115 µM	1.05
[12], 0.1235 µM	1.09
[12], 0.3704 µM	1.06
[12], 1.111 µM	1.13
[12], 3.333 µM	1.21
[12], 10 µM	1.31

C=C1C[C@@H]2CC[C@@]34C[C@H]5O[C@H]6[C@@H](O3)[C@H]3O[C@H](CC[C@@H]3O[C@H]6[C@H]5O4)CC(=O)C[C@@H]3[C@@H](OC)[C@@H](C[C@H](O)CN)O[C@H]3C[C@H]3O[C@@H](CC[C@@H]1O2)C[C@@H](C)C3=C [Eribulin Mesylate]
Settings	relative viability
[1], 1.37 pM	1.01
[1], 4.1 pM	0.996
[1], 12.3 pM	0.973
[1], 37 pM	0.425
[1], 0.00011 µM	0.472
[1], 0.00033 µM	0.311
[1], 0.001 µM	0.254
[1], 0.003 µM	0.178
[1], 0.009 µM	0.122
[1], 0.027 µM	0.109
[1], 460 fM	0.996
[2], 1.37 pM	0.971
[2], 4.1 pM	0.952
[2], 12.3 pM	0.909
[2], 37 pM	0.819
[2], 0.00011 µM	0.708
[2], 0.00033 µM	0.52
[2], 0.001 µM	0.482
[2], 0.003 µM	0.392
[2], 0.009 µM	0.359
[2], 0.027 µM	0.308
[2], 460 fM	0.996
[3], 1.37 pM	1.05
[3], 4.1 pM	1.06
[3], 12.3 pM	0.861
[3], 37 pM	0.0486
[3], 0.00011 µM	0.0799
[3], 0.00033 µM	0.0234
[3], 0.001 µM	0.0171
[3], 0.003 µM	0.0147
[3], 0.009 µM	0.0166
[3], 0.027 µM	0.019
[3], 460 fM	1.07
[4], 1.37 pM	0.915
[4], 4.1 pM	0.709
[4], 12.3 pM	0.513
[4], 37 pM	0.388
[4], 0.00011 µM	0.323
[4], 0.00033 µM	0.319
[4], 0.001 µM	0.312
[4], 0.003 µM	0.354
[4], 0.009 µM	0.365
[4], 0.027 µM	0.345
[4], 460 fM	1.01
[5], 1.37 pM	1.13
[5], 4.1 pM	1.08
[5], 12.3 pM	1.06
[5], 37 pM	0.975
[5], 0.00011 µM	0.935
[5], 0.00033 µM	0.702
[5], 0.001 µM	0.56
[5], 0.003 µM	0.497
[5], 0.009 µM	0.474
[5], 0.027 µM	0.441
[5], 460 fM	1.16
[6], 1.37 pM	1.04
[6], 4.1 pM	1.02
[6], 12.3 pM	0.953
[6], 37 pM	0.472
[6], 0.00011 µM	0.0831
[6], 0.00033 µM	0.0672
[6], 0.001 µM	0.041
[6], 0.003 µM	0.0209
[6], 0.009 µM	0.0188
[6], 0.027 µM	0.0232
[6], 460 fM	1.02
[7], 1.37 pM	1.06
[7], 4.1 pM	1
[7], 12.3 pM	0.901
[7], 37 pM	0.72
[7], 0.00011 µM	0.474
[7], 0.00033 µM	0.391
[7], 0.001 µM	0.437
[7], 0.003 µM	0.359
[7], 0.009 µM	0.295
[7], 0.027 µM	0.244
[7], 460 fM	1.08
[8], 1.37 pM	1.1
[8], 4.1 pM	1.08
[8], 12.3 pM	1
[8], 37 pM	0.959
[8], 0.00011 µM	0.779
[8], 0.00033 µM	0.178
[8], 0.001 µM	0.08945
[8], 0.003 µM	0.06
[8], 0.009 µM	0.0428
[8], 0.027 µM	0.043
[8], 460 fM	1.054
[9], 1.37 pM	1.069
[9], 4.1 pM	1.041
[9], 12.3 pM	0.9352
[9], 37 pM	0.683
[9], 0.00011 µM	0.442
[9], 0.00033 µM	0.268
[9], 0.001 µM	0.254
[9], 0.003 µM	0.247
[9], 0.009 µM	0.273
[9], 0.027 µM	0.254
[9], 460 fM	1.07
[10], 1.37 pM	1.11
[10], 4.1 pM	1.09
[10], 12.3 pM	1.1
[10], 37 pM	0.9987
[10], 0.00011 µM	0.655
[10], 0.00033 µM	0.504
[10], 0.001 µM	0.365
[10], 0.003 µM	0.245
[10], 0.009 µM	0.179
[10], 0.027 µM	0.15
[10], 460 fM	1.07
[11], 1.37 pM	1.061
[11], 4.1 pM	1.08
[11], 12.3 pM	1.05
[11], 37 pM	1.04
[11], 0.00011 µM	0.801
[11], 0.00033 µM	0.523
[11], 0.001 µM	0.41
[11], 0.003 µM	0.336
[11], 0.009 µM	0.307
[11], 0.027 µM	0.309
[11], 460 fM	1.02
[12], 1.37 pM	1.08
[12], 4.1 pM	1.06
[12], 12.3 pM	1.06
[12], 37 pM	0.814
[12], 0.00011 µM	0.736
[12], 0.00033 µM	0.604
[12], 0.001 µM	0.513
[12], 0.003 µM	0.452
[12], 0.009 µM	0.417
[12], 0.027 µM	0.366
[12], 460 fM	1.05
